Measured values published in patent US5158939A, “Method of stimulating the immune systems of animals and compositions useful therefor” (priority 1990, dated 1992).
“Also recorded” adds a separate entry of the source. Read-outs that look alike come from different tables or passages of the source.

Legend:
[1] = tested on: RAW 264.7 murine macrophage cells; experiment: Cachectin/TNF production by RAW 264.7 cells, immunoblot; type: cell-based
Protocol: For the […] to activate the RAW 264.7 murine macrophage cell line, we chose the toxic deep rough chemotype LPS (ReLPS) from Escherichia coli D31m4, which was recently purified and characterized^15. […] This is a clear example of a lipid A derivative showing strong antagonism against a toxic agonist in the induction of cachectin.
The immunoblot method was used to quantitate the cachectin/TNF production by RAW 264.7 murine macrophage cells. RAW 264.7 cells^4,16 were seeded in 24-well plates (Nunc) at a density of 3×10^5 cells/well in Dulbecco's modified Eagle's medium supplemented with 5 percent fetal calf serum. After 12 hours, cell monolayers were washed twice with 1 ml of serum-free medium and then left covered with […] of the same. An aqueous suspension of DPLA and/or ReLPS was then added to a final concentration indicated. Cells were incubated for 12 hours, after which the medium was removed for measurement of TNF by immunoblotting. One hundred μl of medium was mixed with 100 μl of SDS-containing sample buffer, heated to 100° C. for 5 minutes, and subjected to electrophoresis in a 10-15% polyacrylamide gradient gel. Proteins were then transferred to nitrocellulose electrophoretically, and TNF was visualized through the use of a rabbit anti-mouse TNF polyclonal serum^3,5 applied at a 1:100 dilution, followed by alkaline phosphatase-conjugated goat anti-rabbit IgG (Bio-Rad).
Bands were visualized using nitroblue tetrazolium. Approximately 0.1 ng of cachectin/TNF may be detected as a band. The antiserum also recognized the processing intermediates (prohormones) on Western blot.

[2] = tested on: chick embryo; experiment: Chick embryo lethality test; type: in vivo
Protocol: It was characterized as the tetramethyl derivative by plasma desorption mass spectrometry. It is nontoxic based on the chick embryo lethality test (CELD50 >20 μg), and its structure is shown in Formula II.

[3] = Toxicity / endotoxic activity (general statements); settings: in words
[4] = tested on: 70Z/3 cells; type: cell-based
Protocol: ^1 Corrected for background of 5% fluorescence.
^2 The DPLA stimulated 7OZ/3 preB cells to the extent of from 2.5-6.0
fluorescence at concentrations of 1.0-10 mg/ml. In the competitive
inhibition experiment, the cells were first exposed to DPLA for 2 hours
before adding the ReLPS. In all experiments, the ReLPS and DPLA were
complexed with bovine serum albumin.
In this experiment, 0.1 μg/ml of ReLPS and 3.0 μg/ml of DPLA were
^1 The time of pre/post treatment of 7OZ/3 cells with DPLA relative t
the time of addition of ReLPS are indicated.

[5] = tested on: mice; experiment: LD50 in galactosamine-sensitized mice; type: in vivo
Protocol: Although the diphospholipids from E. coli and Salmonella strains are highly toxic, DPLA having the structure of the diphosphoryllipid A from R. sphaeroides is not. The LD50 of DPLA in galactosamine--sensitized mice was greater than 20 mg/kg.

[6] = tested on: serum TNF; experiment: Serum TNF rise after E. coli LPS in mice; type: in vivo; settings: RsDPLA 100 μg and 1 mg, 60 and 90 min before E. coli LPS 1 μg and 5 μg i.p.

## CCCCCCC=CCCCCCC(=O)OC(CCCCCCCCCCC)CC(=O)NC1C(OCC2OC(OP(=O)(O)O)C(NC(=O)CC(=O)CCCCCCCCCCC)C(OC(=O)CC(O)CCCCCCC)C2O)OC(CO)C(OP(=O)(O)O)C1OC(=O)CC(O)CCCCCCC (stereo not drawn) [DPLA]
[1]; DPLA 1-1000 ng/ml
  induction of cachectin (immunoblot): not able to induce the formation of cachectin
[1]; DPLA 10^3 ng/ml + ReLPS 10 ng/ml (ReLPS:DPLA 1:100)
  inhibition of ReLPS-induced cachectin (immunoblot): definite inhibition
[1]; DPLA 10^4 ng/ml
  induction of cachectin (immunoblot): only slight induction
[1]; in words
  blocking of ReLPS-induced cachectin/TNF (immunoblot): blocks the induction of cachectin; also recorded: blocking of induction
[1]; with ReLPS 10 ng/ml
  DPLA concentration at which inhibition was probably maximal: < 10^4 ng/ml
[2]
  CELD50: > 20 µg
[3]
  endotoxic activity: nontoxic
[3]; listed as R. sphaeroides DPLA
  endotoxic activity: not endotoxic
[3]; listed as pentaacyl DPLA
  endotoxic activity: lacks endotoxic activity; also recorded: no endotoxic activity
[4]; Table 4, DPLA 0.1 μg/ml 2 h before ReLPS 0.1 μg/ml
  Activation (% fluorescence): 52 % fluorescence
[4]; Table 4, DPLA 0.3 μg/ml 2 h before ReLPS 0.1 μg/ml
  Activation (% fluorescence): 45 % fluorescence
[4]; Table 4, DPLA 1.0 μg/ml 2 h before ReLPS 0.1 μg/ml
  Activation (% fluorescence): 26.5 % fluorescence
[4]; Table 4, DPLA 3.0 μg/ml 2 h before ReLPS 0.1 μg/ml
  Activation (% fluorescence): 14 % fluorescence
[4]; Table 5, DPLA 1.0 μg/ml, ReLPS 0
  Activation (% fluorescence): 3.5 % fluorescence
[4]; Table 5, DPLA 1.0 μg/ml, ReLPS 0.1 μg/ml
  Activation (% fluorescence): 28.5 % fluorescence
[4]; Table 5, DPLA 1.0 μg/ml, ReLPS 0.3 μg/ml
  Activation (% fluorescence): 48.5 % fluorescence
[4]; Table 5, DPLA 1.0 μg/ml, ReLPS 1.0 μg/ml
  Activation (% fluorescence): 57.5 % fluorescence
[4]; Table 5, DPLA 1.0 μg/ml, ReLPS 10 μg/ml
  Activation (% fluorescence): 75.5 % fluorescence
[4]; Table 5, DPLA 3.0 μg/ml, ReLPS 0
  Activation (% fluorescence): 2.56 % fluorescence
[4]; Table 5, DPLA 3.0 μg/ml, ReLPS 0.1 μg/ml
  Activation (% fluorescence): 13.5 % fluorescence
[4]; Table 5, DPLA 3.0 μg/ml, ReLPS 0.3 μg/ml
  Activation (% fluorescence): 30 % fluorescence
[4]; Table 5, DPLA 3.0 μg/ml, ReLPS 1.0 μg/ml
  Activation (% fluorescence): 55 % fluorescence
[4]; Table 5, DPLA 3.0 μg/ml, ReLPS 10 μg/ml
  Activation (% fluorescence): 77 % fluorescence
[4]; Table 5, DPLA 10 μg/ml, ReLPS 0.1 μg/ml
  Activation (% fluorescence): 4.5 % fluorescence
[4]; Table 5, DPLA 10 μg/ml, ReLPS 0.3 μg/ml
  Activation (% fluorescence): 11 % fluorescence
[4]; Table 5, DPLA 10 μg/ml, ReLPS 1.0 μg/ml
  Activation (% fluorescence): 25 % fluorescence
[4]; Table 5, DPLA 10 μg/ml, ReLPS 10 μg/ml
  Activation (% fluorescence): 69 % fluorescence
[4]; Table 6, DPLA 3.0 μg/ml added at 0 h relative to ReLPS 0.1 μg/ml
  Activation (% fluorescence): 10.5 % fluorescence
[4]; Table 6, DPLA 3.0 μg/ml added at 2 h relative to ReLPS 0.1 μg/ml
  Activation (% fluorescence): 20 % fluorescence
[4]; Table 6, DPLA 3.0 μg/ml added at 4 h relative to ReLPS 0.1 μg/ml
  Activation (% fluorescence): 24 % fluorescence
[4]; Table 6, DPLA 3.0 μg/ml added at 6 h relative to ReLPS 0.1 μg/ml
  Activation (% fluorescence): 24.5 % fluorescence
[4]; Table 6, DPLA 3.0 μg/ml added at 8 h relative to ReLPS 0.1 μg/ml
  Activation (% fluorescence): 9.5 % fluorescence
[4]; Table 6, DPLA 3.0 μg/ml added at 16 h relative to ReLPS 0.1 μg/ml
  Activation (% fluorescence): 44 % fluorescence
[4]; Table 6, DPLA 3.0 μg/ml added at 20 h relative to ReLPS 0.1 μg/ml
  Activation (% fluorescence): 54 % fluorescence
[4]; Table 6, DPLA 3.0 μg/ml added at 24 h relative to ReLPS 0.1 μg/ml
  Activation (% fluorescence): 55.5 % fluorescence
[4]; Table 6, DPLA 3.0 μg/ml added at -2 h relative to ReLPS 0.1 μg/ml
  Activation (% fluorescence): 11 % fluorescence
[4]; in words
  antagonism of LPS-induced activation of 70Z/3 pre-B cells: effective antagonist in the LPS-induced activation of 70Z/3 pre-B cells; also recorded: block LPS-inducted immunoglobulin synthesis by 70Z/3 pre-B cells
[5]
  LD50: greater than 20 mg/kg
[6]
  rise in serum TNF: blocked a rise in serum TNF
